Data: ChEMBL document CHEMBL5154826, “Discovery of the Clinical Candidate MAK683: An EED-Directed, Allosteric, and Selective PRC2 Inhibitor for the Treatment of Advanced Malignancies” (J Med Chem, 2022)
≈ marks a conversion by molar mass, not a printed value.

Columns and labels:
[1] = Antitumor activity against human Karpas-422 cells xenografted Athymic BALB/c nude mouse assessed as inhibition of tumor growth at 300 mg/kg, po for 23 days; format: functional; design: scale not given: the % may be the effect or the level left; conditions: time 23 day
[2] = Oral biovailability in Beagle dog at 2 mg/kg, po; format: ADME, organism-based, Canis lupus familiaris; conditions: in vivo
[3] = Oral bioavailability in Sprague-Dawley rat at 2 mg/kg; format: ADME, organism-based; conditions: in vivo
[4] = Plasma protein binding in rat at 1 uM measured after 6 hrs LC-MS/MS analysis; format: ADME, cell-free; conditions: read-out: PPB (converted)
[5] = Reduction of H3K27me3 level in human Karpas-422 cells xenografted Athymic BALB/c nude mouse tumor assessed at 10 mg/kg, po twice a day for 21 days; format: functional; design: scale not given: the % may be the effect or the level left; conditions: time 21 day
[6] = Metabolic stability in mouse microsomes assessed as intrinsic clearance; format: ADME, Microsome; conditions: read-out: CLH
NIH3T3 = assay: Phototoxicity in mouse 3T3 cells by neutral red uptake assay; format: toxicity, cell-based
Cytochrome P450 3A4 [7] = target: T1, Cytochrome P450 3A4 (Homo sapiens, UniProt P08684); assay: Inhibition of CYP3A4 in human liver microsomes using midazolam as substrate incubated for 10 mins in presence of NADPH by LC-MS/MS analysis; format: ADME, Microsome
[8] = Plasma protein binding in human at 1 uM measured after 6 hrs LC-MS/MS analysis; format: ADME, cell-free; conditions: read-out: PPB (converted)
[9] = Ratio of drug level in human blood to plasma; format: ADME, cell-free; conditions: whole blood
[10] = Mutagenecity in Salmonella typhimurium TA98 by Ames test; format: toxicity; conditions: salmonella enterica subsp. enterica serovar typhimurium
[11] = Plasma clearance in human assessed as hepatic extraction; format: ADME, cell-free
[12] = Drugmetabolism in dog hepatocytes assessed as CYP3A4 mediated metabolite formation; format: ADME, cell-based, Canis lupus familiaris, Hepatocyte
[13] = Antitumor activity against human Karpas-422 cells xenografted Athymic BALB/c nude mouse assessed as inhibition of tumor growth at 30 mg/kg, po bid, for 33 days; format: functional; design: scale not given: the % may be the effect or the level left; conditions: time 33 day
[14] = Volume of distribution at steady state in wild type Beagle dog at 2 mg/kg, po or 1 mg/kg, iv after 1 week by LC-MS/MS analysis; format: ADME, organism-based, Canis lupus familiaris; conditions: in vivo, 168 h, time 1 weeks
[15] = High throughput solubility of the compound in FaSSIF after 16 to 24 hrs by MS/MS analysis; format: physicochemical; conditions: time 16-24 hrs
[16] = In vivo inhibition of PRC2 in PBMC collected from human Karpas-422 cells xenografted Athymic NTac:NIH-Whn nude rat assessed as reduction in H3K27me3 level at 30 mg/kg, po, qd for 42 days measured after 4 hrs of last dose by FACS method; format: functional; design: scale not given: the % may be the effect or the level left; conditions: time 42 day
[17] = Antitumor activity against human Karpas-422 cells xenografted Athymic BALB/c nude mouse assessed as inhibition of tumor growth at 3 to 100 mg/kg, po bid, for 30 days treatment started at twenty fifth day after cancer cell implantation and followed by stop dosing measured upto 70 days; format: functional; design: scale not given: the % may be the effect or the level left; conditions: dose 3-100 mg/kg, time 30 day
[18] = Drug metabolism in bile duct cannulated Wistar Han rat assessed as parent compound recovery in bile at 3 mg/kg, iv after 8 hrs by LC-MS/MS analysis; format: ADME, organism-based; conditions: read-out: Drug metabolism
[19] = Drugmetabolism in rat hepatocytes assessed as CYP3A4 mediated metabolite formation; format: ADME, cell-based, Hepatocyte
[20] = Terminal half life in wild type Beagle dog at 2 mg/kg, po or 1 mg/kg, iv after 1 week by LC-MS/MS analysis; format: ADME, organism-based, Canis lupus familiaris; conditions: in vivo, time 1 weeks, read-out: beta t1/2 (converted)
[21] = Dose normalized AUC in Sprague-Dawley rat at 2 mg/kg, po or 1 mg/kg, iv after 1 week by LC-MS/MS analysis; format: ADME, organism-based; conditions: in vivo, 168 h, time 1 weeks
[22] = Metabolic stability in dog microsomes assessed as intrinsic clearance; format: ADME, Canis lupus familiaris, Microsome; conditions: read-out: CLH
Cytochrome P450 3A4 [23] = target: T1, Cytochrome P450 3A4; assay: Inhibition of CYP3A4 in human liver microsomes using midazolam as substrate incubated for 10 mins by LC-MS/MS analysis; format: ADME, Microsome
KARPAS-422 = assay: Antiproliferative activity against human KARPAS-422 cells expressing EZH2 mutant assessed as inhibition of cell growth after 14 days by beckman coulter counting method; format: functional; conditions: time 14 day
[24] = High throughput solubility of the compound in FeSSIF after 16 to 24 hrs by MS/MS analysis; format: physicochemical; conditions: time 16-24 hrs
[25] = Dose normalized AUC in ICR (CD-1) mouse at 2 mg/kg, po or 1 mg/kg, iv after 1 week by LC-MS/MS analysis; format: ADME, organism-based; conditions: in vivo, 168 h, time 1 weeks
[26] = Plasma clearance in dog; format: ADME, cell-free, Canis lupus familiaris
[27] = Plasma clearance in dog assessed as hepatic extraction; format: ADME, cell-free, Canis lupus familiaris; conditions: read-out: ERH
[28] = Ratio of drug level in rat blood to plasma; format: ADME, cell-free
Cytochrome P450 2C9 = Cytochrome P450 2C9 (Homo sapiens, UniProt P11712); assay: Inhibition of CYP2C9 human liver microsomes using diclofenac as substrate incubated for 15 mins by LC-MS/MS analysis; format: ADME, Microsome
[29] = Toxicity in Athymic NTac:NIH-Whn nude rat xenografted with human Karpas-422 cells assessed as reduction in body weight at 0.3 to 30 mg/kg, po, qd measured upto 140 days; format: organism-based; conditions: in vivo, 3360 h, dose 0.3-30 mg/kg, time < 140 day
Cytochrome P450 2D6 = Cytochrome P450 2D6 (Homo sapiens, UniProt P10635); assay: Inhibition of CYP2D6 in human liver microsomes using bufuralol as substrate incubated for 10 mins in presence of NADPH by LC-MS/MS analysis; format: ADME, Microsome
[30] = High throughput solubility of the compound at pH 4 after 16 to 24 hrs by MS/MS analysis; format: physicochemical; conditions: buffer, time 16-24 hrs
[31] = Dose normalized Cmax in ICR (CD-1) mouse at 2 mg/kg, po or 1 mg/kg, iv after 1 week by LC-MS/MS analysis; format: ADME, organism-based; conditions: in vivo, 168 h, time 1 weeks
[32] = High throughput solubility of the compound at pH 7 after 16 to 24 hrs by MS/MS analysis; format: physicochemical; conditions: buffer, time 16-24 hrs, read-out: solubility
[33] = Toxicity in Athymic BALB/c nude mouse xenografted with human Karpas-422 cells assessed as tolerability by measuring body weight at 10 to 300 mg/kg, po twice a day for 30 days; format: organism-based; conditions: in vivo, 720 h, dose 10-300 mg/kg, time 30 day
[34] = Ratio of drug level in dog blood to plasma; format: ADME, cell-free, Canis lupus familiaris; conditions: whole blood
[35] = Intrinsic clearance in rat hepatocytes measured per 10^6 cells; format: ADME, cell-based, Hepatocyte; conditions: read-out: CLH
[36] = Plasma protein binding in dog at 1 uM measured after 6 hrs LC-MS/MS analysis; format: ADME, cell-free, Canis lupus familiaris; conditions: read-out: PPB (converted)
[37] = Metabolic stability in rat microsomes assessed as intrinsic clearance; format: ADME, Microsome; conditions: read-out: CLH
[38] = Toxicity in rat assessed as effect on adrenal gland; conditions: in vivo
[39] = Dissociation constant, pKa of compound; format: physicochemical
[40] = Antitumor activity against human Karpas-422 cells xenografted Athymic BALB/c nude mouse assessed as inhibition of tumor growth at 100 mg/kg, po for 26 days; format: functional; design: scale not given: the % may be the effect or the level left; conditions: time 26 day
[41] = Terminal half life in Sprague-Dawley rat at 2 mg/kg, po or 1 mg/kg, iv after 1 week by LC-MS/MS analysis; format: ADME, organism-based; conditions: in vivo, time 1 weeks, read-out: beta t1/2 (converted)

T1 sequence (P08684 whole entry): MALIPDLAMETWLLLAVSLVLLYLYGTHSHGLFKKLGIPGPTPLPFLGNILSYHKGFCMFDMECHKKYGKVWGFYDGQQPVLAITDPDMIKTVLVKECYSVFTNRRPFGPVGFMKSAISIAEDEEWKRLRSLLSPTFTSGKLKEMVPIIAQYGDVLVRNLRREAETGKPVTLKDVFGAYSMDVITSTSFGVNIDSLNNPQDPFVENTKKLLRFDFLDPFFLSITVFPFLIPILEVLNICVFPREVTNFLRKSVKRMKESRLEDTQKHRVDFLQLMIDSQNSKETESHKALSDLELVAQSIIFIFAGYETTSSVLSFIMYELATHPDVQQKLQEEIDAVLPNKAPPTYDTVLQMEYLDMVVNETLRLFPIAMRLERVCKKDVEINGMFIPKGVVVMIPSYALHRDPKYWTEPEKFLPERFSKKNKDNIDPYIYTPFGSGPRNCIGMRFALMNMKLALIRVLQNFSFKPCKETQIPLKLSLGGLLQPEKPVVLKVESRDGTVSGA
Sequence of Cytochrome P450 2D6 (P10635 whole entry): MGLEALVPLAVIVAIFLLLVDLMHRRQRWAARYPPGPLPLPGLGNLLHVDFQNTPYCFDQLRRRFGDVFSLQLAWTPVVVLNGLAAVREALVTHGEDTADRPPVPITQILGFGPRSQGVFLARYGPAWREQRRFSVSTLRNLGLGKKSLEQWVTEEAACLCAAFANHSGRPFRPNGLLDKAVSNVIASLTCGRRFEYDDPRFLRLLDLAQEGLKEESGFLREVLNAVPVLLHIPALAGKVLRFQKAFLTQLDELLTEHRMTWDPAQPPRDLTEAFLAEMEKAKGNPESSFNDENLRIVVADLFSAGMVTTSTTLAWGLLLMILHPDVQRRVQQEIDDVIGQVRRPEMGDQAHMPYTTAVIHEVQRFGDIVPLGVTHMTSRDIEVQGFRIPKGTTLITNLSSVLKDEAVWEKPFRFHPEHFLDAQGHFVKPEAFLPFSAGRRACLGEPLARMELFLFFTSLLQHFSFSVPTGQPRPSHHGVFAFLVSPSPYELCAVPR
Sequence of Cytochrome P450 2C9 (P11712 whole entry): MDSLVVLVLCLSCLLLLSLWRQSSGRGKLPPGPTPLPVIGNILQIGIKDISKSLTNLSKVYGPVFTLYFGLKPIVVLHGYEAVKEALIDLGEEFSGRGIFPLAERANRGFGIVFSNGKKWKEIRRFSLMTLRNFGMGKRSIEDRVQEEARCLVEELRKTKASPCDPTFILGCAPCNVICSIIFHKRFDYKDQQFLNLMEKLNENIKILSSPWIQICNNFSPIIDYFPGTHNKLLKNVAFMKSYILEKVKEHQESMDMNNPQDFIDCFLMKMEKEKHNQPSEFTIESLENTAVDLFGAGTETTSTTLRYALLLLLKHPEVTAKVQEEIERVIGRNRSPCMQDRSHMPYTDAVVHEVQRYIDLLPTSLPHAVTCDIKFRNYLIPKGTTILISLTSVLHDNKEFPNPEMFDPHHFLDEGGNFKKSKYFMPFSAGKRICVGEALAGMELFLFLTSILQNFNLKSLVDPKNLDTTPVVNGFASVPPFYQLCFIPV

bioavailability [2]: 73%
bioavailability [3]: 69%
fraction unbound at 6 h, 1 µM [4]: 0.13
microsomal CLint [6]: 22 µL/min/mg
IC50 (Cytochrome P450 3A4 [7]): > 20 µM
fraction unbound at 6 h, 1 µM [8]: 0.08
blood plasma ratio [9]: 0.78
CLH [11]: 1.6 mL/min/kg
Drug metabolism [12]: Metabolite_Detected
Vdss [14]: 1 L/kg
solubility [15]: 25 µM (≈ 9.41 µg/mL)
dose excreted at 8 h [18]: 0.3%
Drug metabolism [19]: Metabolite_Detected
half-life [20]: 72 min
AUC/dose [21]: 2939 nM·h
microsomal CLint [22]: 91 µL/min/mg
IC50 (Cytochrome P450 3A4 [23]): > 18 µM
GI50 (KARPAS-422; Homo sapiens, KARPAS-422, 336 h): 4 µM
GI90 (KARPAS-422): 8 µM
solubility [24]: 57 µM (≈ 21.5 µg/mL)
AUC/dose [25]: 884 nM·h
clearance [26]: 13 mL/min/kg
hepatic extraction ratio [27]: 0.35
blood plasma ratio [28]: 0.98
IC50 (Cytochrome P450 2C9): > 18 µM
IC50 (Cytochrome P450 2D6): > 20 µM
solubility [30]: 266 µM (≈ 100 µg/mL)
Cmax/dose [31]: 356 nM
solubility [32]: 19 µM (≈ 7.15 µg/mL)
blood plasma ratio [34]: 0.72
hepatocyte CLint [35]: 12 µL/min/1e6 cells
fraction unbound at 6 h, 1 µM [36]: 0.09
microsomal CLint [37]: 22 µL/min/mg
pKa [39]: 5.2
half-life [41]: 192 min
SMILES: Cc1ncccc1-c1cnc(NCc2c(F)ccc3c2CCO3)n2cnnc12
Activity [1]: 100%
Activity [5]: >50%
Activity (NIH3T3): Non-Toxic
Activity [10]: Non-Toxic
Activity [13]: 100%
Activity [16]: 93%
Activity [17]: 100%
Activity [29]: Non-Toxic
Activity [33]: Non-Toxic
Activity [38]: Non-Toxic
Activity [40]: 100%
